The target in the experiment is T1, alpha subunit of the human FcεRI receptor (Homo sapiens, UniProt P12319).
T1 construct: expressed in transfected cells; host or cells: Chinese hamster ovary (CHO FcεRI+) cells
T1 sequence (P12319 26-257): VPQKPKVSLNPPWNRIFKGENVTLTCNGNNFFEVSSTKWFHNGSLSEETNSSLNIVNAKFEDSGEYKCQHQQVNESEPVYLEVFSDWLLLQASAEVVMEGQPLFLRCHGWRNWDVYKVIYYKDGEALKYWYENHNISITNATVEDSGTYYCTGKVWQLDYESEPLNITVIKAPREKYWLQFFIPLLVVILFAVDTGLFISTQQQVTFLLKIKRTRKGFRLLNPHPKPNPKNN
The experiment is described as follows: cell-based 125I-IgE binding inhibition assay on CHO FcεRI+ cells. As to conditions: for fold difference in activity relative to comparator peptide: comparator (parent/control peptide) as named in the sentence. As for the experimental part: . The following day the cells were rinsed three times with PBS and then once with F12/DMEM. Peptide stocks were reconstituted in 100 mM Hepes buffered water, pH 7.2, at a concentration of 5 mg/mL. Working concentrations of the peptide were diluted in assay buffer (see below). 75 ul, of a desired concentration of peptide was added to the top row of a separate 96 well microtiter plate and serially diluted 1:3 in 50 uL of the assay buffer (F12/DMEM, 1% BSA, 0.05% NaN3 and […] Hepes pH 7.2). Starting concentrations ranged from 50-500 uM. Next, 50 uL of the diluted peptide was transferred to the 96 microtiter well plate containing a monolayer of CHO FcεRI+ cells. After a 1 hour incubation at room temperature, 50 uL of ^125I-IgE (1.5 nM) was added to each well and incubated for an additional 45-60 minutes at 4° C. followed by 5 washes with 200 uL of assay buffer. Cells were solubilized with 200 uL of 1 N NaOH and transferred to a 96 microtiter tube for counting in a gamma counter to determine counts bound. The data were plotted using KaleidaGraph 3.0 and fitted using 4-parameter fits. IC50 values were determined for each peptide.
Six peptides based on selected clones from library #516 were synthesized and assayed for the ability to inhibit the binding of ^125I-IgE to a Chinese hamster ovary cell line expressing the alpha subunit of the IgE high affinity receptor, FcεRI. The peptides were synthesized as nine residue monomers and oxidized to allow the formation of a disulfide bridge resulting in a cyclic peptide. The size of each peptide was confirmed by mass spectrometry.

The mark [1] stands for this setting: IgE-inhibition activity of synthetic peptides, read-out: Inhibition activity: C+hd 50 +l (uM) ± s.d.
The mark [2] stands for this setting: inhibition of labeled IgE-binding to CHO FcεRI+ cells, read-out: Mean IC50(uM) ± S.D.

Each structure is given as a SMILES string. Read-outs that look alike come from different tables or passages of the source. Where a SMILES comes first, the peptide text is derived from it. Bridges are numbered along the chain shown (N, C = ends). [ ]: non-standard residue; d: D form. Pip = O=C(O)[C@@H]1CCCCN1

The values below come from patent US20040086942A1, “Ige receptor antagonists” (priority 2003, published 2004).

With `CC(C)C[C@H](NC(=O)[C@H](C)N)C(=O)N[C@H]1CSSC[C@@H](C(=O)N[C@@H](Cc2ccc(O)cc2)C(=O)N[C@H](C(N)=O)C(C)C)NC(=O)[C@H](C(C)C)NC(=O)[C@H](CCC(=O)O)NC(=O)[C@@H]2CCCN2C1=O` [IGE035, ALCPEVCYV-nh2] (H-ALCPEVCYV-NH2; disulfide 3-7), the “inhibiting 125I-IgE binding to cell surface expressed FcεRI (in words)” value is on record as “not active”. Besides, the IC50 under setting [1] is above 500 µM.
In the case of `CC(=O)N[C@@H](C)C(=O)N[C@@H](CC(C)C)C(=O)N[C@H]1CSSC[C@@H](C(=O)N[C@@H](Cc2ccc(O)cc2)C(=O)N[C@H](C(N)=O)C(C)C)NC(=O)[C@H](C(C)C)NC(=O)[C@H](CCC(=O)O)NC(=O)[C@@H]2CCCN2C1=O` [IGE036, Ac-ALCPEVCYV-nh2] (Ac-ALCPEVCYV-NH2; disulfide 3-7), the “inhibiting 125I-IgE binding to cell surface expressed FcεRI (in words)” value is given as “not active”. Further, under setting [1], the IC50 was above 500 µM.
Regarding `CSCC[C@H](NC(=O)[C@@H]1CSSC[C@H](NC(=O)[C@H](CCCNC(=N)N)NC(=O)[C@@H]2CCCN2C(=O)[C@H](CC(C)C)NC(=O)[C@@H](N)CC(N)=O)C(=O)N[C@@H]([C@@H](C)O)C(=O)N[C@@H](CCC(=O)O)C(=O)NCC(=O)N2CCC[C@H]2C(=O)N[C@@H](Cc2c[nH]c3ccccc23)C(=O)NCC(=O)N[C@@H](Cc2c[nH]c3ccccc23)C(=O)N[C@@H](C(C)C)C(=O)N1)C(=O)N[C@@H](C)C(=O)N[C@@H](C)C(=O)N[C@@H](CC(=O)O)C(N)=O` [IGE043, NLPRCTEGPWGWVCMAAD-nh2] (H-NLPRCTEGPWGWVCMAAD-NH2; disulfide 5-14), the IC50 under setting [2] is 1.4 ± 1 µM.
In the case of `CC[C@H](C)[C@H](NC(=O)[C@@H]1CSSC[C@H](N)C(=O)N[C@@H](CC(C)C)C(=O)N[C@@H](CCC(=O)O)C(=O)NCC(=O)N2CCC[C@H]2C(=O)N[C@@H](Cc2c[nH]c3ccccc23)C(=O)NCC(=O)N[C@@H](Cc2c[nH]c3ccccc23)C(=O)N[C@@H](Cc2ccccc2)C(=O)N1)C(N)=O` [IGE045, CLEGPWGWFCI-nh2] (H-CLEGPWGWFCI-NH2; disulfide 1-10; N-terminus assumed), the IC50 under setting [2] is 300 ± 269 µM.
Same read-out and setting: the result for `CC[C@H](C)[C@H](NC(=O)[C@@H]1CSSC[C@H](N)C(=O)N[C@@H]([C@@H](C)O)C(=O)N[C@@H](CCC(=O)O)C(=O)NCC(=O)N2CCC[C@H]2C(=O)N[C@@H](Cc2c[nH]c3ccccc23)C(=O)NCC(=O)N[C@@H](Cc2c[nH]c3ccccc23)C(=O)N[C@@H](C(C)C)C(=O)N1)C(N)=O` [IGE055, CTEGPWGWVCI-nh2] (H-CTEGPWGWVCI-NH2; disulfide 1-10) reads above 500 µM; that for `CC[C@H](C)[C@H](NC(=O)[C@@H]1CSSC[C@H](NC(C)=O)C(=O)N[C@@H]([C@@H](C)O)C(=O)N[C@@H](CCC(=O)O)C(=O)NCC(=O)N2CCC[C@H]2C(=O)N[C@@H](Cc2c[nH]c3ccccc23)C(=O)NCC(=O)N[C@@H](Cc2c[nH]c3ccccc23)C(=O)N[C@@H](C(C)C)C(=O)N1)C(N)=O` [IGE056, Ac-CTEGPWGWVCI-nh2] (Ac-CTEGPWGWVCI-NH2; disulfide 1-10), above 500 µM; that for `CSCC[C@H](NC(=O)[C@@H]1CSSC[C@H](NC(=O)[C@H](CCCNC(=N)N)NC(=O)[C@@H]2CCCN2C(=O)[C@H](CC(C)C)NC(=O)[C@H](CC(N)=O)NC(C)=O)C(=O)N[C@@H]([C@@H](C)O)C(=O)N[C@@H](CCC(=O)O)C(=O)NCC(=O)N2CCC[C@H]2C(=O)N[C@@H](Cc2c[nH]c3ccccc23)C(=O)NCC(=O)N[C@@H](Cc2c[nH]c3ccccc23)C(=O)N[C@@H](C(C)C)C(=O)N1)C(N)=O` [IGE058, Ac-NLPRCTEGPWGWVCM-nh2] (Ac-NLPRCTEGPWGWVCM-NH2; disulfide 5-14), 1.8 ± 1.3 µM.
Regarding `CSCC[C@H](NC(=O)[C@@H]1CSSC[C@H](NC(=O)[C@H](CCCNC(=N)N)NC(=O)[C@@H]2CCCN2C(=O)[C@H](CC(C)C)NC(=O)[C@H](CC(N)=O)NC(C)=O)C(=O)N[C@@H]([C@@H](C)O)C(=O)N[C@@H](C)C(=O)NCC(=O)N2CCC[C@H]2C(=O)N[C@@H](Cc2c[nH]c3ccccc23)C(=O)NCC(=O)N[C@@H](Cc2c[nH]c3ccccc23)C(=O)N[C@@H](C(C)C)C(=O)N1)C(=O)N[C@@H](C)C(=O)N[C@@H](C)C(=O)N[C@@H](CC(=O)O)C(N)=O` [IGE059, AC-NLPRCTAGPWGWVCMAAD-nh2] (Ac-NLPRCTAGPWGWVCMAAD-NH2; disulfide 5-14), the “fold reduction in inhibition/binding” value (truncations and alanine substitutions of IGE063) is on record as 6 fold.
With `CSCC[C@H](NC(=O)[C@@H]1CSSC[C@H](NC(=O)[C@@H]2CCCN2C(=O)[C@H](CC(C)C)NC(=O)[C@H](CC(N)=O)NC(C)=O)C(=O)N[C@@H]([C@@H](C)O)C(=O)N[C@@H](C)C(=O)NCC(=O)N2CCC[C@H]2C(=O)N[C@@H](Cc2c[nH]c3ccccc23)C(=O)NCC(=O)N[C@@H](Cc2c[nH]c3ccccc23)C(=O)N[C@@H](C(C)C)C(=O)N1)C(=O)N[C@@H](C)C(=O)N[C@@H](C)C(=O)N[C@@H](CC(=O)O)C(N)=O` [IGE060, Ac-NLPCTAGPWGWVCMAAD-nh2] (Ac-NLPCTAGPWGWVCMAAD-NH2; disulfide 4-13), under setting [2], the IC50 was above 500 µM.
On the same count and under the same terms, then `CSCC[C@H](NC(=O)[C@@H]1CSSC[C@H](NC(=O)[C@H](CCCNC(=N)N)NC(=O)[C@@H]2CCCN2C(=O)[C@H](CC(C)C)NC(=O)[C@@H](N)CC(N)=O)C(=O)N[C@@H]([C@@H](C)O)C(=O)N[C@@H](CCC(=O)O)C(=O)NCC(=O)N[C@@H](C)C(=O)N[C@@H](Cc2c[nH]c3ccccc23)C(=O)NCC(=O)N[C@@H](Cc2c[nH]c3ccccc23)C(=O)N[C@@H](C(C)C)C(=O)N1)C(=O)O` [IGE070, NLPRCTEGAWGWVCM] (H-NLPRCTEGAWGWVCM-OH; disulfide 5-14), with above 500 µM.
Turning to `CC[C@H](C)[C@H](NC(=O)[C@@H]1CSSC[C@H](NC(=O)[C@H](CCCNC(=N)N)NC(=O)[C@@H]2CCCN2C(=O)[C@H](CC(C)C)NC(=O)[C@@H](N)CC(N)=O)C(=O)N[C@@H]([C@@H](C)O)C(=O)N[C@@H](CCC(=O)O)C(=O)NCC(=O)N2CCC[C@H]2C(=O)N[C@@H](Cc2c[nH]c3ccccc23)C(=O)NCC(=O)N[C@@H](Cc2c[nH]c3ccccc23)C(=O)N[C@@H](C(C)C)C(=O)N1)C(=O)O` [IGE075, NLPRCTEGPWGWVCI] (H-NLPRCTEGPWGWVCI-OH; disulfide 5-14; N-terminus and C-terminus assumed), the IC50 under setting [2] was 1.4 ± 1.1 µM.
For the molecule `CC[C@H](C)[C@H](N)C(=O)N[C@H](C(=O)N[C@H]1CSSC[C@@H](C(=O)N[C@@H](Cc2ccc(O)cc2)C(=O)N[C@H](C(N)=O)C(C)C)NC(=O)[C@H](C(C)C)NC(=O)[C@H](CC(=O)O)NC(=O)[C@@H]2CCCN2C(=O)[C@@H]2CSSC[C@H](NC(=O)[C@H](CC(C)C)NC(=O)[C@H](CCCNC(=N)N)NC(=O)[C@@H]3CCCN3C1=O)C(=O)N[C@@H](Cc1ccc(O)cc1)C(=O)N[C@@H](CCC(=O)O)C(=O)N[C@@H](CC(C)C)C(=O)N[C@@H](CC(=O)O)C(=O)N[C@@H](Cc1ccc(O)cc1)C(=O)N[C@@H](CCC(=O)O)C(=O)N[C@@H](CC(C)C)C(=O)N2)C(C)C` [IGE141] (H-IVCPRLCYELDYELCPDVCYV-NH2; disulfide 3-19, 7-15), the “fold difference in activity relative to comparator peptide” value is 2 fold.
In the case of `CC(C)C[C@@H]1NC(=O)[C@H](CCC(=O)O)NC(=O)[C@H](C)NC(=O)CNC(=O)CNC(=O)[C@H](Cc2ccccc2)NC(=O)[C@H](Cc2ccc(O)cc2)NC(=O)[C@@H]2CSSC[C@H](NC1=O)C(=O)N1CCC[C@H]1C(=O)N[C@@H](CC(=O)O)C(=O)N[C@@H](C(C)C)C(=O)N[C@H](C(=O)N[C@@H](Cc1ccc(O)cc1)C(=O)N[C@H](C(N)=O)C(C)C)CSSC[C@H](NC(=O)[C@H](CCC(N)=O)NC(=O)[C@@H](N)C(C)C)C(=O)N1CCCC[C@H]1C(=O)N[C@@H](Cc1c[nH]cn1)C(=O)N[C@@H](Cc1ccccc1)C(=O)N2` [IGE162-2, VQC(Pip)HFCYFGGAELCPDVCYV-nh2] (H-VQC[Pip]HFCYFGGAELCPDVCYV-NH2; disulfide 3-19, 7-15), the “fold difference in activity relative to comparator peptide” value was “little change in activity”.
In the case of `CC[C@H](C)[C@H](NC(=O)[C@@H]1CSSC[C@H](NC(=O)[C@H](CC(C)C)NC(=O)[C@@H](NC(=O)CNC(=O)[C@@H](N)CCSC)[C@@H](C)O)C(=O)N[C@@H](CC(C)C)C(=O)N[C@@H](CCC(=O)O)C(=O)NCC(=O)N2CCC[C@H]2C(=O)N[C@@H](CCC(=O)O)C(=O)NCC(=O)N[C@@H](Cc2c[nH]c3ccccc23)C(=O)N[C@@H](Cc2ccccc2)C(=O)N1)C(=O)N[C@@H](CCC(=O)O)C(=O)N[C@@H](CO)C(=O)N[C@@H](C)C(=O)O` [MGTLCLEGPEGWFCIESA] (H-MGTLCLEGPEGWFCIESA-OH; disulfide 5-14), for the setting “IGE037: initially, read-out: IC50”, the IC50 was above 160 µM.
